From PubChem BioAssay (NCI)
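Grown in 96-well plates, cells were treated for 48 hours with each compound at five concentrations. Insufficient inhibition: endpoint recorded as highest concentration tested. Here, GI50 denotes the concentration required for 50% inhibition of growth. TGI: total growth inhibition.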

Experiments:
Assay in all cases: growth of human tumour cells (NCI), 48 h
UACC-257 melanoma = test system: UACC-257 melanoma
SF-295 CNS = test system: SF-295 CNS
SN12C renal = test system: SN12C renal
RPMI-8226 leukemia = test system: RPMI-8226 leukemia
HCT-15 colon = test system: HCT-15 colon
MOLT-4 leukemia = test system: MOLT-4 leukemia
OVCAR-8 ovarian = test system: OVCAR-8 ovarian
COLO 205 colon = test system: COLO 205 colon
HCT-116 colon = test system: HCT-116 colon
MDA-MB-435 = test system: MDA-MB-435

SMILES	TGI (UACC-257 melanoma)	TGI (SF-295 CNS)	TGI (SN12C renal)	TGI (RPMI-8226 leukemia)	TGI (HCT-15 colon)	TGI (MOLT-4 leukemia)	TGI (OVCAR-8 ovarian)	TGI (COLO 205 colon)	TGI (HCT-116 colon)	GI50 (UACC-257 melanoma)	GI50 (SF-295 CNS)	GI50 (HCT-15 colon)	GI50 (MOLT-4 leukemia)	GI50 (OVCAR-8 ovarian)	GI50 (COLO 205 colon)	GI50 (MDA-MB-435)	TGI (MDA-MB-435)	GI50 (HCT-116 colon)	GI50 (SN12C renal)	GI50 (RPMI-8226 leukemia)
COc1ccc2c(c1)Oc1cc(O)ccc1[C@@H]2c1ccccc1C(=O)NC(C)c1ccccc1 (some centres undefined)	32.7 µM	28.6 µM	28.6 µM	39.1 µM	34.6 µM	36.2 µM	46.7 µM	32.9 µM	24.8 µM											
Cc1ccc(NC(=O)C(=O)CC(=O)c2c(C)n([O-])c3ccccc3[n+]2=O)cc1	50.7 µM	> 100 µM	> 100 µM	58.6 µM	89.4 µM	52.8 µM	55.8 µM	55.2 µM	37.2 µM											
O=C(NCCCCCCNC(=O)OCCSCCn1cc(C(=O)NC(=O)OCc2ccccc2)c(=O)[nH]c1=O)OCCSCCn1cc(C(=O)NC(=O)OCc2ccccc2)c(=O)[nH]c1=O	> 100 µM	> 100 µM	> 100 µM	> 100 µM	> 100 µM	> 100 µM	> 100 µM	> 100 µM												
FC(F)(F)c1ccc(C#Cc2ccccc2C#Cc2ccccc2)cc1	> 100 µM	> 100 µM			> 100 µM	87.2 µM	> 100 µM	> 100 µM	> 100 µM	69.5 µM	30.3 µM	35.1 µM	35 µM	59.2 µM	34.3 µM	35.4 µM	> 100 µM	21.6 µM		
O=C1CCCC(=O)N1CCc1c[nH]c2ccccc12	> 100 µM	> 100 µM	> 100 µM			> 100 µM	> 100 µM		> 100 µM											
COc1ccc(S(=O)(=O)Nc2cc(/C=C\c3cc(OC)c(OC)c(OC)c3)ccc2OC)cc1	93.4 µM	70.9 µM	> 100 µM	3.83 µM	> 100 µM	> 100 µM	> 100 µM	0.158 µM	> 100 µM	2.98 µM	0.0393 µM	0.0623 µM	0.388 µM	0.276 µM	0.0383 µM			0.0797 µM	0.682 µM	0.319 µM
CC(C)(CN1CCCCC1)C(=O)/C=C/c1ccc(Cl)cc1	19.9 µM	11.3 µM	7.24 µM	10.1 µM	9.85 µM	5.11 µM	5.51 µM	17.5 µM	13 µM											
Cn1ccc2c(C(=O)c3ccccc3)cccc2c1=O	> 100 µM	66.9 µM	> 100 µM	> 100 µM	> 100 µM	> 100 µM	> 100 µM	> 100 µM	> 100 µM											
Fc1ccccc1C1SCc2nc3ccccc3n21 (centres undefined)	> 100 µM	> 100 µM	> 100 µM	> 100 µM		> 100 µM	> 100 µM	> 100 µM	> 100 µM											
c1ccc2cc3[s+]snc3cc2c1	> 100 µM	> 100 µM	> 100 µM		> 100 µM	> 100 µM	> 100 µM	> 100 µM	> 100 µM											
COC(=O)[C@]12CC=C3O[C@@H]4OC5(CCCCC5)O[C@@H]4C3[C@@H]1C(=O)CCC2=O (some centres undefined)	> 100 µM	> 100 µM	> 100 µM	> 100 µM	> 100 µM	> 100 µM	> 100 µM	> 100 µM	> 100 µM											
